Reference: patent US20230416168A1 (EUROCHEM ANTWERPEN, priority 2020, published 2023)

Tests used:
Moorslede soil [1] = experiment: In soil nitrification inhibition assay, Moorslede soil; settings: soil, 120 h, 5 days
Description: Top layer (0 to 10 cm) soil samples were collected from different fields in Belgium (Merelbeke and Moorslede). Vegetation on the field trial was removed and samples were taken from different plots. All soil samples were mixed and sieved (mesh size 2.8 mm) to filter large debris and homogenize soil. The soil was stored at 5° C. in plastic containers covered with Saran foil to prevent changes in microbial community composition and to maintain the original soil water content.
Soil water content was determined by drying 20 g soil for 48 h in a 60° C. oven and measuring weight before and after drying. Based on the soil water content (±20%), compound solutions were prepared so that addition of 200 μl compound and 200 μl NH4Cl solution would result in a final compound concentration of 50 μM and a final NH4^+ concentration of 10 mM. Per treatment, 5 small pots were filled with 20 g soil. Next, the soil was treated first with the respective compound solution and then with the NH4Cl solution. Per tray, positive (50 μM DMP) and negative controls (DMSO) were included. Pots were incubated at 21° C. (6 a.m. to 10 p.m. light) for 7 days. Demineralized water was added to the soil every 2 to 3 days to a soil weight of 20 g. In the end, each sample of 20 g soil was dissolved in 100 ml 1M KCl and shaken for 1 hour, followed by filtration through Whatmann® paper. The filtrate was used to measure pH, NH4^+ and NO3− concentrations.
A set of examples was tested in the same conditions (Moorslede soil, 3 days of incubation) at a concentration of 50 μM.
Another set of examples was tested in different concentrations in Moorslede soil as well, and were sampled after 5 days.
The effect of 3H-1,3-thiazole-2-thione was tested in soil in accordance with the test described above in section 3.3.

Nitrosospira multiformis = experiment: Nitrification inhibition assay with Nitrosospira multiformis (nitrite level after 24 h); format: cell-based; settings: Nitrosospira multiformis
Description: (§1) The compounds of formula (I) and (II) and (III)/(IV) were tested for their nitrification inhibition effect in two screens, using assays with the nitrifying bacteria N. europaea and N. multiformis. In practice, ammonium and candidate nitrification inhibitors (at 100 μM) were added to a dense bacterial culture in multiwell culture plates and after 24 h of incubation, the nitrite level was measured. To normalize for differences between batches of cultures and multiwell culture plates, for each well a relative nitrification was calculated that was normalized towards both the negative and positive controls (see “Material and Methods” below for full details).
(§2) Nitrite (NO2−) was measured using the Griess reagent (Product number: G4410, Griess reagent (modified), Sigma-Aldrich). Equal volumes of the sample or a diluted sample and the Griess reagent were mixed a transparent flat bottom multi-well plate and incubated in the dark at room temperature for 10 minutes. Absorbance values at 540 nm were measured spectrophotometrically (EnVision, Perkin Elmer®) and used to calculate the [NO2−] by use of a standard curve.
Cultures were first 5 times overconcentrated in fresh 181-medium by centrifugation (4000 rpm, 15 min, 5° C.) in 50 mL centrifuge tubes (Cat. No. 430829, CentriStar™ Conical Centrifuge Tubes, Corning®). Per batch, all the cultures were pooled in one sterile Schott bottle and subsequently dispensed in 384-well plates (Cat. No. 781086, CELLSTAR® plate, Greiner BioOne; 50 μl/well) by use of a dispenser (Multidrop™ Combi Reagent Dispenser, Thermo Scientific™) that was first flushed with 181-medium. 0.5 μl of 99.99% DMSO (negative control—final concentration […] was added to the outer two columns on the left side of the plate and 0.5 μl of 10 mM DMP (3,4-dimethylpyrazole, positive control—final concentration 100 μM) was added to the outer two columns on the right side manually. Finally, 0.5 μl of candidate nitrification inhibitors (5 mM stock solutions in 99.99% DMSO—final concentration 50 μM) were added to the central wells using a pin tool on a Tecan robot (Freedom EVO®, Tecan). In between additions, the pins were washed in sequence with 99.5% DMSO, MilliQ water and 100% ethanol and air-dried. All plates were separately wrapped in Parafilm. Stacks of 4 plates were put on top of a 96-well plate filled with 100 μl MilliQ per well, covered with aluminum foil and shaken (±150 rpm) at 30° C. 24 h later, NO2− production was assessed. For this, the samples were first 100 times diluted by pipetting 3 μl of samples into 300 μl fresh growth medium in intermediate plates (Cat. No. 353077, Falcon® 96-well Clear Round Bottom Microplate, Corning®) to then mix 15 μl of the diluted samples with 15 μl Griess reagent in the wells of a transparent, flat bottom 384-well plate (Cat. No. X^7001, Low Profile Microplate, Molecular Devices) that was measured spectrophotometrically at 540 nm (EnVision, Perkin Elmer®).
(§3) To assess the efficacy of the compounds (in terms of nitrification inhibition) and to enable comparison between plates and batches of cultures, we calculated the relative nitrification. More in detail, all nitrite results were normalized towards both a negative control, containing no compound, and a positive control, containing the benchmark (100 μM DMP), using Equation 1. This normalization was done per multi-well plate and each plate contained 32 positive and 32 negative controls.
IC50 values, that is the concentration that inhibits 50% of the nitrification, were calculated after fitting a logistic curve to 8-point dose response data, using doses between 2 and 100 μM with 1.75 fold steps. If a concentration of 2 μM already inhibited nitrification, the IC50 value could not be calculated. In that case, IC50 values represent the dose that gives inhibition closest to 50%.
The compounds of formula (I) and (II) were tested for their nitrification inhibition effect in two screens, using assays with the nitrifying bacteria N. europaea and N. multiformis. […]

Nitrosomonas europaea = experiment: Nitrification inhibition assay with Nitrosomonas europaea (nitrite level after 24 h); format: cell-based; settings: Nitrosomonas europaea
Description: as §1, §2
To prepare a high-throughput nitrification inhibition assay using N. europaea, late-log phase cultures were subcultivated two days before the assay. Just before the assay, the cultures were 5 times overconcentrated with fresh growth medium after centrifugation (4000 rpm, 15 min, 5° C.) in 50 mL centrifuge tubes (Cat. No. 430829, CentriStar™ Conical Centrifuge Tubes, Corning®). Per batch, all the cultures were pooled in one sterile Schott bottle and subsequently dispensed into 384-well plates (Cat. No. 781086, CELL-STAR® plate, Greiner Bio-One; 50 μl/well) by use of a dispenser (Multidrop™ Combi Reagent Dispenser, Thermo Scientific™) that was first flushed with growth medium. Specifically for the high-throughput screen for new nitrification inhibitors, 0.5 μl of 99.99% DMSO (negative control—final concentration 1%) was added to the outer two columns on the left side of the plate and 0.5 μl of 10 mM DMP (3,4-dimethylpyrazole, positive control—final concentration 100 μM) was added to the outer two columns on the right side manually. Finally, 0.5 μl of candidate nitrification inhibitors (5 mM stock solutions in 99.99% DMSO—final concentration 50 μM) were added to the central wells using a pin tool on a Tecan robot (Freedom EVO®, Tecan). In between additions, the pins were washed in sequence with 99.5% DMSO, MilliQ water and 100% ethanol and air-dried. All plates were separately wrapped in Parafilm. Stacks of 4 plates were put on top of a 96-well plate filled with 100 μl MilliQ per well, covered with aluminum foil and shaken at 150 rpm at 28° C. 24 h later, NO2− production was assessed. For this, the samples were first 200 times diluted by pipetting 1.5 μl of samples into 300 μl of fresh growth medium in intermediate plates (Cat. No. 353077, Falcon® 96-well Clear Round Bottom Microplate, Corning®), to then mix 15 μl of the diluted samples with 15 μl Griess reagent in the wells of a transparent, flat bottom 384-well plate (Cat. No. X^7001, Low Profile Microplate, Molecular Devices) that was measured spectrophotometrically at 540 nm (EnVision, Perkin Elmer®).
as §3
IC50 values, that is the concentration that inhibits 50% of the nitrification, were calculated after fitting a logistic curve to 8-point dose response data, using doses between 2 and 100 μM with 1.75 fold steps. […]

Moorslede soil [2] = experiment: Greenhouse gas emissions from soil fertilized with ammonium, Moorslede soil
Description: (§4) Two agricultural soils coming from fields in Moorslede and Sint-Laureins were used. Screw top vials were filled with 10 g soil. Vials were sealed with Parafilm and preincubated at 21° C. in the dark for 5 days. After pre-incubation, vials were ventilated using a fan. The 100 μL of a 1 mM compound solution (10% DMSO) was added, immediately followed by the addition of 100 μL 200 mM NH4Cl. Vials were closed gastight and 5 mL synthetic air was added to the headspace using a plastic syringe, followed by the transfer of 5 mL headspace to an evacuated 3 mL exetainer. Vials were incubated at 21° C. in the dark and background NO concentration was noted. At each sampling timepoint, 5 mL synthetic air was added again to the headspace using a plastic syringe, again followed by the transfer of 5 mL headspace to an evacuated 3 mL exetainer. Vials were ventilated and closed again, and new gas samples were transferred to texetainers like before. N2O, CO2, CH4 in the exetainers were measured via gas chromatography. NO concentration was measured directly.
(§5) To further confirm the inhibitory effect of the new class of nitrification inhibitors on nitrogen losses, gas emissions from soil fertilized with ammonium and treated with 1,3-thiazolidine-2-thione were captured. NO, N2O, CO2 and CH4 was measured.

Sint-Laureins soil = experiment: Greenhouse gas emissions from soil fertilized with ammonium, Sint-Laureins soil
Description: as §4, §5

[3] = 8-point dose response, 2 to 100 μM, read-out: IC50

`CSc1ncco1` [Example 39] was tested, and the inhibition at 50 µM (Moorslede soil [1]; 50 μM, read-out: % Nitrification inhibition in soil (5 days of incubation, Moorslede soil) at indicated concentration) was 62%, the IC50 (Nitrosospira multiformis; [3]) was > 100 µM and the activity at 100 µM (Nitrosospira multiformis; tested concentration 100 μM, 24 h, normalized to DMSO (100%) and 100 μM DMP (0%), read-out: Nitrification at tested concentration (0 = maximum activity)) was 52%. It also gave an IC50 (Nitrosomonas europaea; [3]) of 26 µM and an activity at 100 µM (Nitrosomonas europaea; tested concentration 100 μM, 24 h, normalized to DMSO (100%) and 100 μM DMP (0%), read-out: Nitrification (%) at tested concentration (0 = maximum activity)) of 22%.
In the case of `S=C1NCCS1` [Example 3, 1,3-thiazolidine-2-thione], the inhibition at 20 µM (Moorslede soil [1]; 20 μM, read-out: Average % nitrification inhibition in soil (5 days of incubation, Moorslede soil) at 20 μM) is reported as 7%, the “Cumulative emission at indicated timepoint [ppm]” value (from here on “Cumulative emission”) (Moorslede soil [2]; CH4, 4 h) is reported as 0.20 ppm and the “Cumulative emission” value (Moorslede soil [2]; CH4, 24 h) is reported as 0.38 ppm. The “Cumulative emission” value (Moorslede soil [2]; CH4, 48 h) was 0.38 ppm, the “Cumulative emission” value (Moorslede soil [2]; CH4, 72 h) was 0.51 ppm and the “Cumulative emission” value (Moorslede soil [2]; CH4, 99 h) was 0.51 ppm. The “Cumulative emission” value (Moorslede soil [2]; CO2, 4 h) was 619 ppm, the “Cumulative emission” value (Moorslede soil [2]; CO2, 24 h) was 2385 ppm and the “Cumulative emission” value (Moorslede soil [2]; CO2, 48 h) was 4261 ppm. The “Cumulative emission” value (Moorslede soil [2]; CO2, 72 h) was 6195 ppm, the “Cumulative emission” value (Moorslede soil [2]; CO2, 99 h) was 8131 ppm and the “Cumulative emission” value (Moorslede soil [2]; N2O, 4 h) was 0 ppm. The “Cumulative emission” value (Moorslede soil [2]; N2O, 24 h) was 0 ppm, the “Cumulative emission” value (Moorslede soil [2]; N2O, 48 h) was 0 ppm and the “Cumulative emission” value (Moorslede soil [2]; N2O, 72 h) was 0 ppm. The “Cumulative emission” value (Moorslede soil [2]; N2O, 99 h) was 0 ppm, the “Cumulative emission” value (Moorslede soil [2]; NO, 4 h) was 25 ppm and the “Cumulative emission” value (Moorslede soil [2]; NO, 24 h) was 28 ppm. The “Cumulative emission” value (Moorslede soil [2]; NO, 48 h) was 43 ppm, the “Cumulative emission” value (Moorslede soil [2]; NO, 72 h) was 65 ppm and the “Cumulative emission” value (Moorslede soil [2]; NO, 99 h) was 65 ppm. The “effect on CH4 emission, in words” value (Moorslede soil [2]; cumulative, incubation of 99 h) was “No significant effects”, the “effect on CO2 emission, in words” value (Moorslede soil [2]; cumulative, incubation of 99 h) was “strongly reduced” and the “effect on N2O emission, in words” value (Moorslede soil [2]; cumulative, incubation of 99 h) was “strongly reduced”. The “effect on NO emission, in words” value (Moorslede soil [2]; cumulative, incubation of 99 h) was “strongly reduced”, the “Cumulative emission” value (Sint-Laureins soil; CH4, 4 h) was 0.00 ppm and the “Cumulative emission” value (Sint-Laureins soil; CH4, 24 h) was 0.10 ppm. For the same compound, the “Cumulative emission” value (Sint-Laureins soil; CH4, 48 h) was 0.16 ppm, the “Cumulative emission” value (Sint-Laureins soil; CH4, 72 h) was 0.25 ppm and the “Cumulative emission” value (Sint-Laureins soil; CH4, 99 h) was 0.25 ppm. For the same compound, the “Cumulative emission” value (Sint-Laureins soil; CO2, 4 h) was 372 ppm, the “Cumulative emission” value (Sint-Laureins soil; CO2, 24 h) was 1179 ppm and the “Cumulative emission” value (Sint-Laureins soil; CO2, 48 h) was 2094 ppm. The “Cumulative emission” value (Sint-Laureins soil; CO2, 72 h) was 3101 ppm, the “Cumulative emission” value (Sint-Laureins soil; CO2, 99 h) was 4168 ppm and the “Cumulative emission” value (Sint-Laureins soil; N2O, 4 h) was 0 ppm. The “Cumulative emission” value (Sint-Laureins soil; N2O, 24 h) was 0 ppm, the “Cumulative emission” value (Sint-Laureins soil; N2O, 48 h) was 1 ppm and the “Cumulative emission” value (Sint-Laureins soil; N2O, 72 h) was 1 ppm. For the same compound, the “Cumulative emission” value (Sint-Laureins soil; N2O, 99 h) was 2 ppm, the “Cumulative emission” value (Sint-Laureins soil; NO, 4 h) was 17 ppm and the “Cumulative emission” value (Sint-Laureins soil; NO, 24 h) was 52 ppm. The “Cumulative emission” value (Sint-Laureins soil; NO, 48 h) was 86 ppm, the “Cumulative emission” value (Sint-Laureins soil; NO, 72 h) was 140 ppm and the “Cumulative emission” value (Sint-Laureins soil; NO, 99 h) was 161 ppm. The “effect on CH4 emission, in words” value (Sint-Laureins soil; cumulative, incubation of 99 h) was “No significant effects”, the “effect on CO2 emission, in words” value (Sint-Laureins soil; cumulative, incubation of 99 h) was “strongly reduced” and the “effect on N2O emission, in words” value (Sint-Laureins soil; cumulative, incubation of 99 h) was “strongly reduced”. For the same compound, the “effect on NO emission, in words” value (Sint-Laureins soil; cumulative, incubation of 99 h) was “strongly reduced”.
